The values below come from PMC4703546 (Bioorganic & medicinal chemistry, 2015).

The structures appear in SMILES notation.

A word on the IC50: it is the concentration that gives 50% inhibition.

Data set [1] concerns all c-Met-dependant cell lines. In words: MTT proliferation assay, panel summary. Conditions: Homo sapiens, read-out: IC50 range, antiproliferative activity. It is filed as cell-based. Background: Tetrazolium dyes change colour on reduction, which living cells bring about.
Data set [2] concerns c-Met in MDA-MB-231 cells. In words: Western blot analysis of c-Met and p-c-Met levels. The class given is cell-based, human. Conditions: MDA-MB-231, 15 and 30 μM, 48 h. For orientation: Immunoblotting shows a protein as a band on a membrane.
The subject of data set [3] is MDA-MB-231/GFP. The experiment in a line: Orthotopic athymic nude mouse xenograft model. Conditions: 10 mg/kg i.p. 3 times per week. The class given is in vivo, athymic nude mice.
Data set [4] deals with HL-60 cells. Conditions: HL-60, 5 and 10 μM; cited from earlier work.
The test system of data set [5] is non-tumorigenic human mammary epithelial cells MCF-10A.

For `O=C1N[C@@H](Cc2c[nH]c3ccccc23)C(=O)N/C1=C/c1cnc[nH]1` [DHTD (3), dehydrohistidyltryptophenyl-diketopiperazine], the IC50 in data set [1] was 20 to 40 µM.
In the case of `C=CC(C)(C)[C@@]12C=C(O)C(=O)N3/C(=C/c4cnc[nH]4)C(=O)N[C@]31N(OC)c1ccccc12` [Meleagrin (1), meleagrin], the “effect on phosphorylated (activated) c-Met level” value in data set [2] is listed as “significant reduction”. Further, in data set [2], the “effect on total c-Met level” value is given as “no effect”. The “effect on body weight gains and gross phenotype” value in data set [3] (listed as meleagrin) is recorded as “not adversely affecting”; in data set [3] (listed as meleagrin (1)), “no significant changes”. Further, the “cytotoxic mechanism by flow cytometric analysis” value in data set [4] was “arrested the cell cycle through G2/M phase”. The IC50 in data set [1] was in the range of 1.8 to 8.9 µM. In data set [5], the “toxicity towards MCF-10A cells” value is “minimal”.
Turning to `C=CC(C)(C)[C@@]12C=C(O)C(=O)N3/C(=C/c4cn([C@H]5C[C@@]6(O)O[C@@H]7C[C@@]6(C)[C@]6(C[C@]8(C)CCC(C)(C)[C@@H]8[C@@H]76)[C@@H]5C)cn4)C(=O)N[C@]31N(OC)c1ccccc12` [Meleagrin B], the “cytotoxic mechanism by flow cytometric analysis” value in data set [4] was “induced HL-60 cells apoptosis”.
For the compound `C=CC(C)(C)[C@@]12C[C@H]3C(=O)N/C(=C/c4c[nH]cn4)C(=O)N3[C@@H]1Nc1ccccc12` [Roquefortine C (2), roquefortine C], in data set [1], the IC50 was 20 to 40 µM.
